Drawing on BindingDB's records for doi:10.3109/10799899109064686 (Center For Bio-Pharmaceutical Sciences, 1991), this text covers Ki for 3 compounds.

Test [1] concerns the target T1, 5-hydroxytryptamine receptor 3A (Mus musculus, UniProt P23979).
T1 sequence (P23979 whole entry): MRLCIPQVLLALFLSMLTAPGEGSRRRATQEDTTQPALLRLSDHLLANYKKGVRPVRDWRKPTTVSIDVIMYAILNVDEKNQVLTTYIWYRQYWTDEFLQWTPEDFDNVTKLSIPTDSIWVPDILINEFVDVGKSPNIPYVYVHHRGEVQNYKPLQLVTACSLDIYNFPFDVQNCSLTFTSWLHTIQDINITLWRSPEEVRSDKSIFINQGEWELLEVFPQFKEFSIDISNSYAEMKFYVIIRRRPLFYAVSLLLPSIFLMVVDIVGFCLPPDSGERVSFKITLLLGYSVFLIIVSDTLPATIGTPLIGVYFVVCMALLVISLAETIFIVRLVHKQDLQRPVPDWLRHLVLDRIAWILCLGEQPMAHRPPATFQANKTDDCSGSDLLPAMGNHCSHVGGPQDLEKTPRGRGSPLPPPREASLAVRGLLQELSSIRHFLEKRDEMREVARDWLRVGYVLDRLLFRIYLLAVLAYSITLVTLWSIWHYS

The target of a further test is D(1A) dopamine receptor (Rattus norvegicus, UniProt P18901).
The target in test [2] is Delta-type opioid receptor (Rattus norvegicus, UniProt P33533).
A further test addresses T2, Adenosine receptor A1 (Bos taurus, UniProt P28190).
T2 sequence (P28190 whole entry): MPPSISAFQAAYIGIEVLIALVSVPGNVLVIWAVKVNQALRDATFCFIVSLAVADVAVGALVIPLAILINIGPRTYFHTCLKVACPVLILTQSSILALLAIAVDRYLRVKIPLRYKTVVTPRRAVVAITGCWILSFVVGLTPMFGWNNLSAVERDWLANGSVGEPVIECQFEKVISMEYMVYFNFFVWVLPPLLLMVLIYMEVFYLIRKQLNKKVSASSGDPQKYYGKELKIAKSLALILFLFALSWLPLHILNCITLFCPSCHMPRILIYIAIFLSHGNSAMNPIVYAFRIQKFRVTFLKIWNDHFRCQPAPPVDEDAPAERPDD

In test [3] the target is T3, Alpha-2C adrenergic receptor (Rattus norvegicus, UniProt P22086).
T3 sequence (P22086 whole entry): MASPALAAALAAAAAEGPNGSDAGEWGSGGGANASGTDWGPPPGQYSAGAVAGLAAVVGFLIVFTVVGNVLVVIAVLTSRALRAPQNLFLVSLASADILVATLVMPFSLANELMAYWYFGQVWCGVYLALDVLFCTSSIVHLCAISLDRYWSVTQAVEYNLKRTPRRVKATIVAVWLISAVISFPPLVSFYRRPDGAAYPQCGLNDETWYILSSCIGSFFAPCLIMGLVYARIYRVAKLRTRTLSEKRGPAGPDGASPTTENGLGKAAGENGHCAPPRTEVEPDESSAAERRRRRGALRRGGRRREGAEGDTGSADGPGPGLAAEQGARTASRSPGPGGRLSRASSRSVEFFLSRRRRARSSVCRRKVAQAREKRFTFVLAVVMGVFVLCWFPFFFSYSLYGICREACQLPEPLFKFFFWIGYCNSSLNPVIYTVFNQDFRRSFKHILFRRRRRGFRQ

For test [4], the target named is Substance-P receptor (Rattus norvegicus) (UniProt P14600).
Test [5] concerns the target T4, Cysteinyl leukotriene receptor 1 (Cavia porcellus, UniProt Q2NNR5).
T4 sequence (Q2NNR5 whole entry): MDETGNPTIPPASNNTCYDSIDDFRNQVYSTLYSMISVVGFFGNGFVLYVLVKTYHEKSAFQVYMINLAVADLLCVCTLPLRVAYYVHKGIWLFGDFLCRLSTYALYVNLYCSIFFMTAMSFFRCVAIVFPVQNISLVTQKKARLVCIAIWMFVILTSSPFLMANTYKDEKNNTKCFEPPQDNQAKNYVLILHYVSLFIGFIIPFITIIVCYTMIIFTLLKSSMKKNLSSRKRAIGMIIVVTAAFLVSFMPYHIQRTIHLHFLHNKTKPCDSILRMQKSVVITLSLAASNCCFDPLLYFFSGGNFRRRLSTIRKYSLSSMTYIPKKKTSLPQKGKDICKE

Test [6] deals with T5, Gastrin/cholecystokinin type B receptor (Rattus norvegicus, UniProt P30553).
T5 sequence (P30553 whole entry): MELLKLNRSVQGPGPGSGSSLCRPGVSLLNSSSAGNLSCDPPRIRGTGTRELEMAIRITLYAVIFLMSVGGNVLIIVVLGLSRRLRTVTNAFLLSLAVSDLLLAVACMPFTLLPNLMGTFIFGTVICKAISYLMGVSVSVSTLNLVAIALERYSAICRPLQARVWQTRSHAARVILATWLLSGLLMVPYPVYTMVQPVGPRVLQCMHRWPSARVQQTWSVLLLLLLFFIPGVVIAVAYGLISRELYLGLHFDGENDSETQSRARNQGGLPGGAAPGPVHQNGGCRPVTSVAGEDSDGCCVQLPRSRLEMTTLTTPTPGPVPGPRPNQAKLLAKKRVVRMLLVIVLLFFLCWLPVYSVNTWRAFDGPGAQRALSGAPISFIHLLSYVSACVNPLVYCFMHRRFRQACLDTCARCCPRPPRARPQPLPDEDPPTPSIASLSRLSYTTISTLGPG

Test [7] deals with T6, Muscarinic acetylcholine receptor M1 (Rattus norvegicus, UniProt P08482).
T6 sequence (P08482 whole entry): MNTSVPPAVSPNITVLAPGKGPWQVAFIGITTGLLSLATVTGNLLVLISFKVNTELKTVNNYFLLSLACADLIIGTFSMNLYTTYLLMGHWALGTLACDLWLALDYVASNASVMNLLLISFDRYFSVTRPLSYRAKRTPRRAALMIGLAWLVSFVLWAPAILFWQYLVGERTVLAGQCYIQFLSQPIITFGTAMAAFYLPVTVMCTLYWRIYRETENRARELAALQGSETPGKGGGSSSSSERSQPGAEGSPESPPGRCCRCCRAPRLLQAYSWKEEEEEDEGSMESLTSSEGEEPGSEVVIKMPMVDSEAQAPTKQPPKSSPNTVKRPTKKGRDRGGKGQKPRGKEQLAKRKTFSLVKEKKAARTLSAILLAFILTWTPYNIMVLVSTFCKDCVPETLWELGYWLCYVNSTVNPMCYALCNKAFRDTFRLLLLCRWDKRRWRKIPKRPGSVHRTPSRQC

Chain of Delta-type opioid receptor (P33533 whole entry): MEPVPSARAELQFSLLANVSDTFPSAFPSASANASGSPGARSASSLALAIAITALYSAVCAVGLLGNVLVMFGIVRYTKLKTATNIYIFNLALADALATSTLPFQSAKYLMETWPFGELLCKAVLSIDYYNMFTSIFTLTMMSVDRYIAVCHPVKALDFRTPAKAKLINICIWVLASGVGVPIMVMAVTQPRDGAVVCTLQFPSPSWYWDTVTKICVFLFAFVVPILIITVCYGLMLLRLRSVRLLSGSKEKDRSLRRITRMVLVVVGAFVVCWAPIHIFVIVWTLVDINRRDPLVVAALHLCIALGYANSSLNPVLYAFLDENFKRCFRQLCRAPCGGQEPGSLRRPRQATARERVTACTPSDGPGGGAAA
Chain of Substance-P receptor (Rattus norvegicus) (P14600 whole entry, looked up): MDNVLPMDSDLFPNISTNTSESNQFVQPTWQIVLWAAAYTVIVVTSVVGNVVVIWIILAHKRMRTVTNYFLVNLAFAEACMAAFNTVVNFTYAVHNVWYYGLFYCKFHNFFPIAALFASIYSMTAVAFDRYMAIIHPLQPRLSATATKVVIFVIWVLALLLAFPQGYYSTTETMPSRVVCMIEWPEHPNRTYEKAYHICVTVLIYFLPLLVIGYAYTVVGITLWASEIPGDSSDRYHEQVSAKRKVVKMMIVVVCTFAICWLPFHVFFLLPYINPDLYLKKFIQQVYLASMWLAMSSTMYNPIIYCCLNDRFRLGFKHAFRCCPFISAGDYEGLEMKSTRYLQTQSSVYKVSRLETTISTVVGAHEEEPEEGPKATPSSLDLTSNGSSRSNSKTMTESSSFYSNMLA
Chain of D(1A) dopamine receptor (P18901 whole entry): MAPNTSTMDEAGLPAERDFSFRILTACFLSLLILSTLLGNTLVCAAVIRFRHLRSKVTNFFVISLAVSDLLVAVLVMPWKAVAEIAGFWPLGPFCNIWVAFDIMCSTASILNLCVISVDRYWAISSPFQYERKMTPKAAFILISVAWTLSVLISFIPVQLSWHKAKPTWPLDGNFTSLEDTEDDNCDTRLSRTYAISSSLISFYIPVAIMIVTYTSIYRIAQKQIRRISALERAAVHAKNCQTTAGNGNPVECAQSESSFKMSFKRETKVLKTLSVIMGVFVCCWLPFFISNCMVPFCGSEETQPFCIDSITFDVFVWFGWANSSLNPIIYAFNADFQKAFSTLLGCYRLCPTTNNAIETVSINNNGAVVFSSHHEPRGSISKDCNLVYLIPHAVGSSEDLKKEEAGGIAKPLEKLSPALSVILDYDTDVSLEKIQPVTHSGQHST

For orientation: Ki means the dissociation constant of the complex between target and ligand, obtained from inhibition or displacement. A low value points to a stronger hold on the target. In the case of `N=C(N)NC(=O)c1nc(Cl)c(N2CCCCCC2)nc1N`, the inhibitory constant (Ki) in [1] was more than 10 µM; on D(1A) dopamine receptor, more than 10 µM; in [2] it was 1 µM; on Adenosine receptor A1, 0.41 µM; in test [3], 5.2 µM; in [4], more than 10 µM. In addition, the values for the Ki in [5], in [6] and in test [7] were more than 10 µM, more than 10 µM and 3.6 µM, respectively.
For `N=C(N)NC(=O)c1nc(Cl)c(N)nc1N` [3,5-diamino-N-carbamimidoyl-6-chloropyrazine-2-carboxamide], the Ki in test [1] is more than 10 µM; at D(1A) dopamine receptor it was more than 10 µM; in test [2] it was more than 10 µM; on Adenosine receptor A1 it was 2 µM; in test [3], more than 10 µM; in test [4] it was more than 10 µM. The Ki in [5], in test [6] and in [7] was more than 10 µM throughout.
Regarding `NC(=NCc1ccccc1)NC(=O)c1nc(Cl)c(N)nc1N` [NSC_108107], the Ki in [1] was 2.2 µM; on D(1A) dopamine receptor, more than 10 µM; in test [2], more than 10 µM; on Adenosine receptor A1 it was 0.65 µM; in [3], 2.2 µM; in test [4], more than 10 µM. The Ki in test [5] was more than 10 µM; in [6], more than 10 µM; in test [7] it was 2.9 µM.
